From patent publication US8309073B2, “Combination of probiotics” (Valio Ltd., priority 2001, dated 2012)
“Also recorded” adds a separate entry of the source.

Key:
[1] = Bile salt tolerance in MRS broths with Oxgal bile salt; type: physicochemical; conditions: for Cell content Bile salt 0.3%: MRS broth with 0.3% Oxgal bile salt; for Cell content Bile salt 0.3% / Cell content Bile salt 0.5%: 3 hours, 37° C.; for Cell content Bile salt 0.5%: MRS broth with 0.5% Oxgal bile salt; for Initial content: before cultivation in bile salt MRS broth
Description: With regard to bile salt tolerance, the strains were tested in MRS broths that contained 0.3% and 0.5% of Oxgal (Sigma) bile salt by inoculating 1% of the fresh culture into the bile salt MRS broth to be studied. The strains were cultivated in the broths for 3 hours at 37° C., after which the content of live cells was determined using an agar suitable for the strain (see Table 5). All strains survived the treatment excellently.

intestinal mucus [2] = experiment: Adhesion of the probiotic strains to intestinal mucus; type: binding; conditions: for Adhesion % (+Std.): adhesion to intestinal mucus
Description: Adhesion of the probiotic strains to mucus was tested in accordance with Ouweland et al. (Ouwehand, A. C., Kirjavainen, P. V., Grönlund, M. -M., Isolauri, E., and Salminen, S. J. 1999. Adhesion of probiotic micro-organisms to intestinal mucus. Int. Dairy J. 9:623-630). LGG and probionic bacterium PJS adhered excellently to the intestinal mucus, Bbi99 moderately and LC705 weakly. Adhesion is a prerequisite for the microbe to produce beneficial effects in the intestines. On the other hand, LC705 is known to adhere well to epithet cells, similarly as LGG (Lehto, E. and Salminen S. 1997. Adhesion of two lactobacillus strains, one lactococcus strain and one propionibacterium strain to cultured human intestinal CaCO-2 cell lines. Bioscience Microflora 16: 13-17). This property is beneficial when there is an imbalance in the intestine and the protective mucus has been weakened.

[3] = Viability in pH-adjusted MRS broths; type: physicochemical; conditions: for Cell content pH 2: MRS broth adjusted with lactic acid to pH 2, 37° C.; for Cell content pH 2 / Cell content pH 3 / Cell content pH 4: 3 hours; for Cell content pH 3: MRS broth adjusted with lactic acid to pH 3, 37° C.; for Cell content pH 4: MRS broth adjusted with lactic acid to pH 4, 37° C.; for Initial content: before cultivation in pH-adjusted MRS broth
Description: The strains were tested at different pH values in MRS broths the pH of which had been adjusted with lactic acid to values pH 4, pH 3 and pH 2. The strain to be studied (fresh culture) was inoculated into a pH broth of 1% and grown at 37° C. for 3 hours, after which the content of live cells was determined using an agar suitable for the strain (see Table 5). The strains maintained their viability in the 3-hour process in a pH value of 3 excellently. […] In the test the bacteria were not protected by components carried by food (such as fat) and therefore they may be assumed to preserve even better when consumed in vivo together with food.

[4] = prior-art description of the strain; cited from earlier work
[5] = tested on: cultured human intestinal CaCO-2 cell lines; conditions: literature / prior-art description; cited from earlier work
intestinal mucus [6] = conditions: prior-art description of the strain; cited from earlier work

Substance | Cell content Bile salt 0.3% [1] | Cell content Bile salt 0.5% [1] | Initial content [1] | adhesion to the intestinal mucus (intestinal mucus [2]) | Adhesion % (+Std.) (intestinal mucus [2]) [%] | Cell content pH 2 [3] | Cell content pH 3 [3] | Cell content pH 4 [3] | Initial content [3] | viability in low pH values and high bile acid contents [4] | adhesion to epithelial cells [5] | adhesion to mucus (strain description) (intestinal mucus [6]) | viability in pH 2 ([3]; pH 2, 3 hours)
Bifidobacterium infantis Bbi99 (DSM 13692) | 1 × 10^7 cfu/ml | 1 × 10^7 cfu/ml | 3 × 10^7 cfu/ml | moderately | 4.6 ± 2.3 | <10 cfu/ml | <10 cfu/ml | 2 × 10^7 cfu/ml | 1 × 10^7 cfu/ml | – | – | – | –
Lactobacillus rhamnosus GG (ATCC 53103) [LGG] | 2 × 10^7 cfu/ml | 9 × 10^6 cfu/ml | 1 × 10^7 cfu/ml | excellently | 26.3 ± 1.3 | <10^2 cfu/ml | 1 × 10^7 cfu/ml | 2 × 10^7 cfu/ml | 1 × 10^7 cfu/ml | survives even lower pH values as well as high bile acid contents | excellent; also recorded: adhere well | excellent | –
Lactobacillus rhamnosus LC705 (DSM 7061) | 2 × 10^7 cfu/ml | 1 × 10^7 cfu/ml | 1 × 10^7 cfu/ml | weakly | 0.7 ± 0.2 | <10^2 cfu/ml | 4 × 10^7 cfu/ml | 2 × 10^8 cfu/ml | 6 × 10^7 cfu/ml | good | moderately; also recorded: adhere well | weakly | –
Propionibacterium freudenreichii ssp. shermanii JS (DSM 7067) [PJS] | 6 × 10^7 cfu/ml | 5 × 10^7 cfu/ml | 6 × 10^7 cfu/ml | excellently | 24.9 ± 2.2 | 1 × 10^4 cfu/ml | 3 × 10^7 cfu/ml | 9 × 10^7 cfu/ml | 1 × 10^8 cfu/ml | excellent | – | – | remained viable
